A short description of this test: Inhibitory activity against Mannosidase in rat liver.

Consider `O[C@@H]1[C@H]2[C@@H](O)CCCN2C[C@H]1O`, for which the IC50 was around 50 µM.
Compound `O[C@H]1[C@H]2[C@@H](O)CCCN2C[C@H]1O` had an IC50 of around 50 µM.
Turning to `O[C@H]1[C@@H]2[C@H](O)CCCN2C[C@H]1O`, the IC50 is around 10 µM.
Next, `OC1CN2CCCCC2C1O` (centres undefined): 7500 µM.

A word on the IC50: it is the point on the concentration scale where inhibition reaches its midpoint.

The record behind these values is ChEMBL document CHEMBL1124582, “Design of potential anti-HIV agents. 1. Mannosidase inhibitors” (J Med Chem, 1989).
